Values quoted from earlier work as cited in US20250381182A1, “ALDH-2 INHIBITOR COMPOUNDS AND METHODS OF USE” (Amygdala Neurosciences, Inc., priority 2024, published 2025).

Settings: O'Malley et al. 2021, Phase 2 study of ANS-6637; cited from earlier work

Question: Which hepatotoxicity in humans does the source give for `O=C(NCc1ccc(-c2cc[nH]c(=O)c2)cc1)c1c(Cl)cccc1Cl` [2,6-dichloro-N-[4-(2-oxo-1,2-dihydro-pyridin-4-yl)-benzyl]-benzamide] here?
Answer: high levels of hepatotoxicity
